pIC50: −log10 of the molar value.
System: Hs578T multi-cell spheroids, viability
Assay: Anticancer human tumor Hs578T cell line growth inhibition [IpAb];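 also: drug exposure lasted 7 days before readout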
Details: for pIC50: curve of first compound; for viability, T/C: stronger effect = lower value
Method in brief: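 Spheroids of 60% malignant cells, 25% HUVEC and 15% MSC were exposed to targeted agents combined with ipatasertib or abemaciclib. Doses started at or near clinical Cmax (10 microM when unknown) and fell in half-log steps.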

[1] = second compound 0.1 µM, first compound 0.0316 µM
[2] = second compound 0.1 µM, first compound 0.1 µM
[3] = second compound 0.1 µM, first compound 0.316 µM
[4] = second compound 0.1 µM, first compound 1 µM
[5] = second compound 0.1 µM, first compound 3.16 µM
[6] = second compound 0.1 µM, first compound 10 µM
[7] = second compound 0.316 µM, first compound 0.0316 µM
[8] = second compound 0.316 µM, first compound 0.1 µM
[9] = second compound 0.316 µM, first compound 0.316 µM
[10] = second compound 0.316 µM, first compound 1 µM
[11] = second compound 0.316 µM, first compound 3.16 µM
[12] = second compound 0.316 µM, first compound 10 µM
[13] = second compound 1 µM, first compound 0.0316 µM
[14] = second compound 1 µM, first compound 0.1 µM
[15] = second compound 1 µM, first compound 0.316 µM
[16] = second compound 1 µM, first compound 1 µM
[17] = second compound 1 µM, first compound 3.16 µM
[18] = second compound 1 µM, first compound 10 µM

SMILES: Cn1ncc(Cl)c1-c1cc(C(=O)NC(CN)Cc2cccc(F)c2)sc1Cl (stereo not given) + CC(C)NCC(C(=O)N1CCN(c2ncnc3c2C(C)CC3O)CC1)c1ccc(Cl)cc1
- pIC50 (second compound 0.1 µM): 5.77
- pIC50 (second compound 0.316 µM): 5.68
- pIC50 (second compound 1 µM): 5.95
- pIC50 (second compound 3.16 µM): 6.02
- pIC50 (second compound 10 µM): 7.50
- viability, T/C [1]: 90.9%
- viability, T/C [2]: 83.2%
- viability, T/C [3]: 70%
- viability, T/C [4]: 56.5%
- viability, T/C [5]: 44.5%
- viability, T/C [6]: 0.16%
- viability, T/C [7]: 51.9%
- viability, T/C [8]: 73.5%
- viability, T/C [9]: 67.1%
- viability, T/C [10]: 54.5%
- viability, T/C [11]: 45.9%
- viability, T/C [12]: 0.16%
- viability, T/C [13]: 67.3%
- viability, T/C [14]: 62.1%
- viability, T/C [15]: 50.1%
- viability, T/C [16]: 51.6%
- viability, T/C [17]: 39.4%
- viability, T/C [18]: 0.15%
- viability, T/C (second compound 3.16 µM, first compound 0.0316 µM): 53.2%
- viability, T/C (second compound 3.16 µM, first compound 0.1 µM): 53.7%
- viability, T/C (second compound 3.16 µM, first compound 0.316 µM): 49%
- viability, T/C (second compound 3.16 µM, first compound 1 µM): 48.6%
- viability, T/C (second compound 3.16 µM, first compound 3.16 µM): 41.5%
- viability, T/C (second compound 3.16 µM, first compound 10 µM): 0.16%
- viability, T/C (second compound 10 µM, first compound 0.0316 µM): 42.7%
- viability, T/C (second compound 10 µM, first compound 0.1 µM): 47.3%
- viability, T/C (second compound 10 µM, first compound 0.316 µM): 43.9%
- viability, T/C (second compound 10 µM, first compound 1 µM): 52.2%
- viability, T/C (second compound 10 µM, first compound 3.16 µM): 28.6%
- viability, T/C (second compound 10 µM, first compound 10 µM): 0.24%

SMILES: Cc1nc(NC(=O)N2CCCC2C(N)=O)sc1-c1ccnc(C(C)(C)C(F)(F)F)c1 (stereo not given) + CCN1CCN(Cc2ccc(Nc3ncc(F)c(-c4cc(F)c5nc(C)n(C(C)C)c5c4)n3)nc2)CC1
- pIC50 (second compound 0.01 µM): 5.75
- pIC50 (second compound 0.0316 µM): 6.07
- pIC50 (second compound 0.1 µM): 6.09
- pIC50 (second compound 0.316 µM): 5.97
- pIC50 (second compound 1 µM): 5.91
- viability, T/C (second compound 0.01 µM, first compound 0.0316 µM): 98.5%
- viability, T/C (second compound 0.01 µM, first compound 0.1 µM): 87.2%
- viability, T/C (second compound 0.01 µM, first compound 0.316 µM): 75.9%
- viability, T/C (second compound 0.01 µM, first compound 1 µM): 61.1%
- viability, T/C (second compound 0.01 µM, first compound 3.16 µM): 40.4%
- viability, T/C (second compound 0.01 µM, first compound 10 µM): 11.9%
- viability, T/C (second compound 0.0316 µM, first compound 0.0316 µM): 88.5%
- viability, T/C (second compound 0.0316 µM, first compound 0.1 µM): 72.3%
- viability, T/C (second compound 0.0316 µM, first compound 0.316 µM): 57.2%
- viability, T/C (second compound 0.0316 µM, first compound 1 µM): 51.2%
- viability, T/C (second compound 0.0316 µM, first compound 3.16 µM): 38.7%
- viability, T/C (second compound 0.0316 µM, first compound 10 µM): 11.7%
- viability, T/C [1]: 77%
- viability, T/C [2]: 68.4%
- viability, T/C [3]: 60.6%
- viability, T/C [4]: 43.9%
- viability, T/C [5]: 37.3%
- viability, T/C [6]: 11.4%
- viability, T/C [7]: 68.5%
- viability, T/C [8]: 66.7%
- viability, T/C [9]: 60.4%
- viability, T/C [10]: 47.7%
- viability, T/C [11]: 39.8%
- viability, T/C [12]: 17%
- viability, T/C [13]: 92.1%
- viability, T/C [14]: 83.3%
- viability, T/C [15]: 66.7%
- viability, T/C [16]: 56.5%
- viability, T/C [17]: 34%
- viability, T/C [18]: 23.5%

Source: PubChem BioAssay AID2060331 (Molecular Pharmacology Branch, DTP, NCI, 2025)
